Results: patent US11236055B2 (Venenum Biodesign, LLC, priority 2016, dated 2022)
Like-named read-outs stand apart in the source and are kept apart here.

Experiments:
[1] = Comparison of PK in DIO mice and lean mice; assay type: in vivo, mouse; settings: for Cmax / Tmax / AUC(0-t): mouse, plasma, po; for AUC(0-t): read-out: AUC (0-4 h)
Experimental: Comparison of PK in DIO Mice and Lean Mice
The PK characteristics of Compound 20AA were examined in non-fasted lean C57BL/6N and DIO mice (Taconic). Compound 20AA was orally administered to both groups at 10 mg/kg by oral gavage and plasma concentration of the compound was determined as described in Example 59.
In addition, PK parameters were determined for Compound 20AA (i.e., Cmax, Tmax and AUC) following oral administration in four groups of mice: (i) fasted lean mice; (ii) non-fasted lean mice; (iii) non-fasted DIO mice; and (iv) lean mice receiving ABT.

[2] = molecular target: T1, mouse TGR5 receptor (Mus musculus, UniProt Q80SS6); experiment: Mouse TGR5 cAMP production assay (luminescent, DiscoveRx cAMP XS+); assay type: cell-based; settings: HEK293-EBNA cells overexpressing mouse TGR5, luminescent cAMP XS+; coded A-D; read-out: Mouse TGR5 Lum. cAMP Activity (EC50)
T1 construct: expressed in transfected cells; host or cells: HEK293-EBNA (293 c18, ATCC CRL10852), Hygromycin B selection
T1 sequence (Q80SS6 1-329): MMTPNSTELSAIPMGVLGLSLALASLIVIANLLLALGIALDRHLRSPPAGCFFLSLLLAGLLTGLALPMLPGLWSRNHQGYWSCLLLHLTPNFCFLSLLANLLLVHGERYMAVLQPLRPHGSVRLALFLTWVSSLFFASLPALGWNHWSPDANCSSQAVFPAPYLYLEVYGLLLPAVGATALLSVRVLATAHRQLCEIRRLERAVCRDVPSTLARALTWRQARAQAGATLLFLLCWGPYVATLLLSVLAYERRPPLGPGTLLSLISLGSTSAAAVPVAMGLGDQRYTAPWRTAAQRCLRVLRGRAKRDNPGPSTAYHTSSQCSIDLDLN
Procedure, shortened: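 HEK293-EBNA cells stably expressing mouse TGR5 were suspended in serum-free DMEM with 500 μM IBMX and preincubated 20 min with cAMP antibody. They were then exposed to half-log compound dilutions for 1 h at room temperature. cAMP measured by enzyme-fragment complementation luminescence after overnight incubation; EC50 derived.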

[3] = tested on: DIO mice; experiment: Weight loss after multiple days of dosing in DIO mice; assay type: in vivo, mouse; settings: DIO mice on high fat diet, oral BID for 12 days
Experimental: Monitoring of Weight Loss after Multiple Days of Dosing Compounds
Compounds of the present invention were dosed for multiple days and were evaluated for their ability to cause mice to lose weight. In the next series of studies (Examples 66-70), Male DIO mice were received at 12 weeks of age (from Taconic), and were single-housed at the testing facility and acclimated for at least 2 weeks. The mice were provided a high fat diet [Research Diet D12492 (60% Fat kcal)] while in the testing facility. Before the study initiation, the animals were randomized into 5 experimental groups by body weight. The vehicle group contained only 0.5% carboxymethylcellulose (medium viscosity)+0.25% Tween-80. The second group contained 10 mg/kg of the DPP-IV inhibitor Linagliptin while the third group contained 10 mg/kg Compound 20BG. The fourth group contained the combination of 10 mg/kg Linagliptin and 10 mg/kg Compound 20BG. The fifth group was the positive control for weight loss, Liraglutide. All mice, except the Liraglutide group, were dosed BID at approximately 6:00 am and again at approximately […]. The positive control liraglutide was administered at a dose of 0.2 mg/kg subcutaneously in the afternoon.
Compounds of the present invention were evaluated for their ability to cause mice to lose weight. Mice were dosed compounds for 12 days and body weights were recorded twice a week.

[4] = C57BL/6N, 10 mg/kg, DIO mice, non-fasted, 10 mpk
[5] = C57BL/6N, 10 mg/kg, Lean mice, non-fasted, 10 mpk
[6] = C57BL/6N, 10 mg/kg, Non-fasted DIO mice, 10 mg/kg oral
[7] = C57BL/6N, 10 mg/kg, Non-fasted Lean mice, 10 mg/kg oral
[8] = Fasted Lean mice, oral administration

In the case of `Cc1cnccc1-c1cccc(C(C)(C)N(CCCC(=O)NCCS(=O)(=O)O)S(=O)(=O)c2ccccc2C(F)(F)F)c1` [Compound 20AA, 2-(4-(N-(2-(3-(3-methylpyridin-4-yl)phenyl)propan-2-yl)-2-(trifluoromethyl)phenylsulfonamido)butanamido)ethanesulfonic acid], the Cmax [1, 4] is reported as 1.7 nM, the Tmax [1, 4] is reported as 1 h and the Cmax [1, 5] is reported as 3 nM. For the same compound, the Tmax [1, 5] was 1 h, the Cmax [1, 6] was 1.7 nM and the Tmax [1, 6] was 1 h. It also gave an AUC(0-t) [1, 6] of 7.6 ng·h/mL, a Cmax [1, 7] of 3 nM and a Tmax [1, 7] of 0.25 h. The AUC(0-t) [1, 7] was 4 ng·h/mL, the “PK profile (Cmax, Tmax, AUC)” value ([1]; lean and DIO mice, fasted or non-fasted, oral administration) was “low PK profile” and the Cmax [1, 8] was 7.2 nM. It also gave a Tmax [1, 8] of 1 h and an AUC(0-t) [1, 8] of 26 ng·h/mL.

With `CCc1cnccc1-c1cccc(C(C)(C)NS(=O)(=O)c2ccccc2C(F)(F)F)c1` [Compound 5, N-(2-(3-(3-ethylpyridin-4-yl)phenyl)propan-2-yl)-2-(trifluoromethyl)benzenesulfonamide] the EC50 [2] was < 100 nM.

For `Cc1cnccc1-c1cccc(C(C)(C)NS(=O)(=O)c2cccc(C(F)(F)F)c2)c1` [Compound 5AA, N-(2-(3-(3-methylpyridin-4-yl)phenyl)propan-2-yl)-3-(trifluoromethyl)benzenesulfonamide], the EC50 [2] was < 100 nM.

For `CCc1cnccc1-c1cccc([C@H](C)N(CCCC(=O)NCCS(=O)(=O)NCC(=O)O)S(=O)(=O)c2ccccc2C(F)(F)F)c1` [Compound 20BG], the body weight change [3] was “modest weight loss”.
